{
  "source": "patent US12194014B2",
  "about": "“Platinum-based amphiphile prodrugs” (NANOMED HOLDINGS PTY LTD, priority 2018, dated 2025)",
  "key": {"[1]": {"assay": "Mesophase behaviour by polarized optical microscopy (POM)", "format": "physicochemical", "details": "for Appearance of the Lyotropic phase at excess water (25° C.-50° C.): POM, equilibration 1 h; for POM observation on exposure to water: 25° C. and 37° C.", "procedure": "Polarized Optical Microscopy (POM): Samples used for Polarized Optical Microscopy (POM) were prepared by placing a small amount of prodrug amphiphile on a microscope slide and covered with a cover slip. Water was placed on the edges of the cover slip and allowed to flow into the sample by capillary action. The microscope slide was placed in a Linkam PE94 hot stage (Linkam Scientific Instruments Ltd. Surrey, England) and heated at 3° C./min between room temperature and 50° C. […] Images were captured with a Nikon DS-Ri-1 camera. All images were taken at 100× magnification.\nThe formation of lyotropic mesophases is based on the interaction of the prodrug amphiphile with water. Polarized optical microscopy was used to study the liquid crystalline or crystalline structures of the prodrug amphiphiles. This method was used as a preliminary and qualitative investigation to observe the morphological changes of the amphiphile as well as to predict the structural changes of the mesophases which may form upon hydration with water. For each prodrug amphiphile, a small amount of the neat and dry sample was placed on a microscope slide and covered with a cover slip. Water was placed on the edges of the cover slip to allow to flow into the sample by capillary action. Images were captured at 25° C. before and after the addition of water and at 37° C. after exposure to water. 37° C. was selected due to its physiological relevance. […]"}, "[2]": {"assay": "Reduction kinetics of Pt (IV) prodrug nanoparticles with ascorbic acid (LC-MS)", "format": "in vitro ADME", "procedure": "The reducing agent was applied at concentrations corresponding to those found in the living cells' environment, e.g. 1 mM ascorbic acid or 2 mM glutathione (GSH).\nDispersed nanoparticles of Pt (IV) prodrug amphiphiles were mixed with GSH, ascorbic acid or their combination. The ratios of the reducing agents to platinum prodrugs were 10:1 or 50:1 for ascorbic acid and 20:1 for GSH. The reduction kinetics was analysed by LC-MS via monitoring the peaks related to each prodrug amphiphile. The prodrugs were detected by negative ions optimised for each platinum amphiphile. The reduction kinetics was plotted as the percentage of the area under the peak of Pt (IV)-prodrug compared to the peak before the addition of the reducing agent against the time of incubation. At each time point 10 μl of a sample withdrawn from the reaction solution was injected directly into a Phenomenex C8 150 mm×2 mm 5 μm Luna column (Phenomenex, Australia). A 100% Methanol solution was used as the mobile phase with a flow rate of 0.5 ml/min for 8 minutes. The sample after the column separation was eluted to the ESI source. […] The samples were well maintained at a temperature of 37° C. during the entire measurement by incubation in the temperature-controlled auto-sampler. Data was acquired and processed with Xcalibur Quan chromatography software."}, "[3]": {"assay": "SAXS of neat and hydrated amphiphiles (phase, lattice parameter)", "format": "physicochemical", "details": "for lattice parameter, hydrated / phase, hydrated: excess water", "procedure": "SAXS analyses of the bulk and lyotropic phases of the amphiphiles were performed on a Bruker NanoSTAR laboratory SAXS instrument (Brucker AXS, Kalsruhe, Germany).\n(§1) The equilibrated lyotropic phases were placed into a demountable button sample cell. For the analysis of the dispersions, a multi-capillary holder was used. Button cells and capillary holder interchangeably fit into a block setup that was temperature-controlled with a Peltier heater-cooler system. 2D scattering images were radially averaged to conventional 1 D scattering plots and as a function of the q value (Å^−1) where q is the length of the scattering vector which was calculated using the formula q=(4π/λ) sin(θ/2), where λ is the wavelength and θ is the scattering angle.\n(§2) Small angle X-ray scattering patterns of emulsions and liposomes display large broad peaks while liquid crystalline phases of highly ordered nanostructured particles such as cubosomes and hexosomes display distinct sharp peaks. The relative positions of the peaks (“spacing”) allows for the elucidation of the symmetry of the structure. The interplanar distance (d) between two reflecting planes may be calculated using the formula d=(2π)/q, where q is the absolute position of the peak. This, in turn allows for the calculation of the lattice parameter (a), the size of the unit cell, to be calculated."}, "[4]": {"assay": "SAXS / synchrotron SAXS of dispersed nanoparticles", "format": "physicochemical", "details": "dispersion with PEG stabiliser", "procedure": "as §1, §2\nThe CP prodrug amphiphiles were hydrated with warm PBS containing 10-30% PEG4K-oleoyl or other steric stabilisers such F108 or F127 and sonicated in a sonicator bath and using a probe sonicator resulting in the lipid emulsion. The nanoparticles were then processed through a polycarbonate membrane (3×400 nm, 3×200 nm and 3×100 nm) using an extruder (Avestin, LipoFast LF-50) in order to ensure homogenous sizing. The CP prodrug-phospholipid/cholesterol nanoparticles were prepared by mixing the CP amphiphiles, DMPC and cholesterol in ethanol, followed by vigorous mixing and gentle evaporation under reduced pressure resulting in a thin film. The thin film was then hydrated with warm PBS containing 10-30% of PEG4K-oleoy solution, sonicated in a sonicator bath and using a probe sonicator resulting in the lipid emulsion. The nanoparticles were then processed through a polycarbonate membrane (3×400, 3×200 nm, 9×100 nm) using an extruder (Avestin, LipoFast LF-50) in order to ensure homogenous sizing between 20-200 nm."}},
  "data": [
    {"compound": "CCCCCCCCCCCCCC(=O)OCCOCCOCCNC(=O)CCC(=O)[O][Pt]1([O]C(=O)CCC(=O)NCCOCCOCCOC(=O)CCCCCCCCCCCCC)[O]C(=O)C2(CCC2)C(=O)[O]1.N.N", "note": "[Carboplatin-bis (suc-PEG3-myristoyl), cis, [Pt (Diamine) (1,1-cyclobutanedicarboxylato) (succinylamide-triethyleneglycol-myristoyl)2]]", "values": [
      {"measurement": "Appearance of the Lyotropic phase at excess water (25° C.-50° C.)", "setting": "[1]", "value": "Lamellar"}
    ]},
    {"compound": "CCCCCCCCCCCCCC(=O)[O][Pt]([Cl])([Cl])[O]C(=O)CCCCCCCCCCCCC.N.N", "note": "[CP-bis (myristoyl), cis,cis,trans-[PtCl2(NH3)2(myristoyl)2]]", "values": [
      {"measurement": "POM observation on exposure to water", "setting": "[1]", "value": "amenable to swelling to some extent"}
    ]},
    {"compound": "CCCCCCCCCCCCCC(=O)[O][Pt]1([NH2])([NH2])([O]C(=O)CCCCCCCCCCCCC)[O]C(=O)C2(CCC2)C(=O)[O]1", "note": "[Carboplatin-bis (myristoyl), cis, trans [(Diamine) (1,1-cyclobutanedicarboxylato) (bis myristoyl)]]", "values": [
      {"measurement": "Appearance of the Lyotropic phase at excess water (25° C.-50° C.)", "setting": "[1]", "value": "No distinct mesophase"},
      {"measurement": "maximum reduction", "setting": "[2]; ascorbic acid as reducing agent, up to 24 h", "value": 80, "unit": "%"}
    ]},
    {"compound": "CC(C)CCCC(C)CCCC(C)CCCC(C)CC(=O)[O][Pt]([NH2])([NH2])([Cl])([Cl])[O]C(=O)CC(C)CCCC(C)CCCC(C)CCCC(C)C", "note": "(mixture of isomers) [CP-bis (phytanoyl), cis,cis,trans-[PtCl2(NH3)2(phytanoyl)2]]", "values": [
      {"measurement": "POM observation on exposure to water", "setting": "[1]", "value": "amenable to swelling to some extent"},
      {"measurement": "Appearance of the Lyotropic phase at excess water (25° C.-50° C.)", "setting": "[1]", "value": "No distinct mesophases"},
      {"measurement": "lattice parameter, neat non-hydrated", "setting": "[3]; 25° C.", "value": "37.3 ± 0.5", "unit": "Å"},
      {"measurement": "phase, neat non-hydrated", "setting": "[3]; 25° C.", "value": "LC1"},
      {"measurement": "lattice parameter, neat non-hydrated", "setting": "[3]; 37° C.", "value": "37.3 ± 0.5", "unit": "Å"},
      {"measurement": "phase, neat non-hydrated", "setting": "[3]; 37° C.", "value": "LC1"},
      {"measurement": "lattice parameter, hydrated", "setting": "[3]; 25° C.", "value": "37.3 ± 0.5", "unit": "Å"},
      {"measurement": "phase, hydrated", "setting": "[3]; 25° C.", "value": "LC1"},
      {"measurement": "lattice parameter, hydrated", "setting": "[3]; 37° C.", "value": "39.8 ± 0.5", "unit": "Å"},
      {"measurement": "phase, hydrated", "setting": "[3]; 37° C.", "value": "LC1"}
    ]},
    {"compound": "cis, trans [Oxaliplatin-bis (myristoyl), cis, trans [Pt ((1R, 2R)-1,2 cyclohexanediamine-N,N′) (oxalate(2-)O,O′) (myristoyl)2]]", "values": [
      {"measurement": "reduction rate compared with carboplatin prodrug", "setting": "[2]; 1 mM ascorbic acid, 0.1 mM prodrug in DMPC/cholesterol nanoparticles", "value": "higher rate up to 3 h compared with carboplatin prodrug"}
    ]},
    {"compound": "CCCCC/C=C\\C/C=C\\CCCCCCCC(=O)[O][Pt]([Cl])([Cl])[O]C(=O)CCCCCCC/C=C\\C/C=C\\CCCCC.N.N", "note": "[CP-bis (linoleoyl), cis,cis,trans-[PtCl2(NH3)2(linoleoyl)2]]", "values": [
      {"measurement": "POM observation on exposure to water", "setting": "[1]", "value": "amenable to swelling to some extent"},
      {"measurement": "Appearance of the Lyotropic phase at excess water (25° C.-50° C.)", "setting": "[1]", "value": "No distinct mesophases"},
      {"measurement": "lattice parameter, hydrated", "setting": "[3]; temperature not given", "value": "33.5 ± 0.5", "unit": "Å"},
      {"measurement": "phase, hydrated", "setting": "[3]; temperature not given", "value": "LC1"},
      {"measurement": "lattice parameter, neat non-hydrated", "setting": "[3]; temperature not given", "value": "33.5 ± 0.5", "unit": "Å"},
      {"measurement": "phase, neat non-hydrated", "setting": "[3]; temperature not given", "value": "LC1"}
    ]},
    {"compound": "CCCCCCCC/C=C\\CCCCCCCC(=O)OCCOCCOCCNC(=O)CCC(=O)[O][Pt]([NH2])([NH2])([Cl])([Cl])[O]C(=O)CCC(=O)NCCOCCOCCOC(=O)CCCCCCC/C=C\\CCCCCCCC", "note": "[CP-bis(suc-amino-PEG3-oleoyl), cis,cis,trans-(PtCl2(NH3)2-(succinoyl-triethylene glycolyl-oleoyl)2)]", "values": [
      {"measurement": "lattice parameter of dispersed nanoparticles", "setting": "[4]", "value": "47.62±0.5", "unit": "Å"},
      {"measurement": "structure of dispersed nanoparticles", "setting": "[4]", "value": "multilamellar dispersed nanoparticle"},
      {"measurement": "lattice parameter, hydrated", "setting": "[3]; 25° C.", "value": "46.54 ± 0.5", "unit": "Å"},
      {"measurement": "lattice parameter, hydrated", "setting": "[3]; 37° C.", "value": "46.33 ± 0.5", "unit": "Å"},
      {"measurement": "lattice parameter, neat non-hydrated", "setting": "[3]; temperature not given", "value": "46.20 ± 0.5", "unit": "Å"}
    ]},
    {"compound": "CCCCCCCC/C=C\\CCCCCCCC(=O)OCCOCCOCCOC(=O)[O][Pt]([NH2])([NH2])([Cl])([Cl])[O]C(=O)OCCOCCOCCOC(=O)CCCCCCC/C=C\\CCCCCCCC", "note": "[CP-bis (PEG3-oleoyl), cis,cis,trans-(PtCl2(-triethyleneglycolyl-oleoyl)2)]", "values": [
      {"measurement": "POM observation on exposure to water", "setting": "[1]", "value": "formation of a lamellar liquid crystalline structures"},
      {"measurement": "lattice parameter of dispersed nanoparticles", "setting": "[4]", "value": "44.28±0.5", "unit": "Å"},
      {"measurement": "structure of dispersed nanoparticles", "setting": "[4]", "value": "lamellar dispersed nanoparticle"},
      {"measurement": "lattice parameter, hydrated", "setting": "[3]; 25° C.", "value": "43.93 ± 0.5", "unit": "Å"},
      {"measurement": "lattice parameter, neat non-hydrated", "setting": "[3]; temperature not given", "value": "40.80 ± 0.5", "unit": "Å"}
    ]},
    {"compound": "CCCCCCCCCCCCCCCC(=O)[O][Pt]([Cl])([Cl])[O]C(=O)CCCCCCCCCCCCCCC.N.N", "note": "[CP-bis (palmitoyl), cis,cis,trans-[PtCl2(NH3)2(palmitoyl)2]]", "values": [
      {"measurement": "POM observation on exposure to water", "setting": "[1]", "value": "amenable to swelling to some extent"}
    ]},
    {"compound": "CCCCCCCC/C=C\\CCCCCCCC(=O)[O][Pt]([NH2])([NH2])([Cl])([Cl])[O]C(=O)CCCCCCC/C=C\\CCCCCCCC", "note": "[CP-bis (oleoyl), cis,cis,trans-[PtCl2(NH3)2(oleoyl)2]]", "values": [
      {"measurement": "POM observation on exposure to water", "setting": "[1]", "value": "amenable to swelling to some extent"},
      {"measurement": "Appearance of the Lyotropic phase at excess water (25° C.-50° C.)", "setting": "[1]", "value": "No distinct mesophases"},
      {"measurement": "lattice parameter, hydrated", "setting": "[3]; temperature not given", "value": "34.2 ± 0.5", "unit": "Å"},
      {"measurement": "phase, hydrated", "setting": "[3]; temperature not given", "value": "LC1"},
      {"measurement": "lattice parameter, neat non-hydrated", "setting": "[3]; temperature not given", "value": "34.2 ± 0.5", "unit": "Å"},
      {"measurement": "phase, neat non-hydrated", "setting": "[3]; temperature not given", "value": "LC1"}
    ]},
    {"compound": "CCCCCCCCCCCC(=O)[O][Pt]([Cl])([Cl])[O]C(=O)CCCCCCCCCCC.N.N", "note": "[CP-bis (lauroyl), cis,cis,trans-[PtCl2(NH3)2(lauroyl)2]]", "values": [
      {"measurement": "POM observation on exposure to water", "setting": "[1]", "value": "no observable difference after hydration with water at either 25 or 37 °C"}
    ]}
  ]
}
